The structures appear in SMILES notation. Read-outs that look alike come from different tables or passages of the source.

Results on ten molecules are retold here after patent US9265253B2, “Use of macrocyclic picolinamides as fungicides” (DOW AGROSCIENCES LLC, priority 2013, dated 2016).

Common to all, as to assay type: in vivo
For assay [1], the system named is Blumeria graminis f. sp. hordei; Synonym: Erysiphe graminis f. sp. hordei. In words: Barley Powdery Mildew (ERYSGH) disease control. The following applies: 1 Day Protectant; for pest or weed control at 100 ppm: Blumeria graminis, 24 h, read-out: Disease Control ERYSGH 1 DP. How it is done: Technical grades of materials were dissolved in acetone, which were then mixed with nine volumes of water containing 110 ppm Triton X-100. The fungicide solutions were applied onto wheat seedlings using an automated booth sprayer to run-off. All sprayed plants were allowed to air dry prior to further handling. All fungicides were evaluated using the aforementioned method for their activity vs. all target diseases. Wheat leaf blotch and brown rust activity were also evaluated using track spray applications, in which case the fungicides were formulated as EC formulations, containing 0.1% Trycol 5941 in the spray solutions. Wheat plants (variety Yuma) were grown from seed in a greenhouse in 50% mineral soil/50% soil-less Metro mix until the first leaf was fully emerged, with 7-10 seedlings per pot. These plants were inoculated with an aqueous spore suspension of Septoria tritici either prior to or after fungicide treatments. After inoculation the plants were kept in 100% relative humidity (one day in a dark dew chamber followed by two to three days in a lighted dew chamber at 20° C.) to permit spores to germinate and infect the leaf. The plants were then transferred to a greenhouse set at 20° C. for disease to develop. When disease symptoms were fully expressed on the 1st leaves of untreated plants, infection levels were assessed on a scale of 0 to 100 percent disease severity. Percent disease control was calculated using the ratio of disease severity on treated plants relative to untreated plants. Barley seedlings (variety Harrington) were propagated in soil-less Metro mix, with each pot having 8 to 12 plants, and used in the test when first leaf was fully emerged. Test plants were inoculated by dusting with infected stock plants 24 hr after fungicide treatments. After inoculation the plants were kept in a greenhouse set at 20° C. for disease to develop. Fungicide formulation, application and disease assessment on the sprayed leaves followed the procedures as described in the Example A.

Assay [2] has as its system Phakopsora pachyrhizi. In words: Asian Soybean Rust (PHAKPA) disease control. The following applies: for pest or weed control at 25 ppm: Phakopsora pachyrhizi, topical. The method in brief: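 Compounds in acetone diluted with nine volumes water containing 0.011% Tween 20, sprayed to run-off on two-week-old Williams 82 soybean seedlings, inoculated 3 days before or 1 day after treatment. Plants held 24 h in dark dew room at 22 °C, 100% RH, then at 23 °C; disease severity scored on sprayed leaves.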

Assay [3] relates to Puccinia triticina; Synonym: Puccinia recondite f. Sp. Tritici. The assay can be described thus: Wheat Brown Rust (PUCCRT) disease control. The following applies: for pest or weed control at 100 ppm / pest or weed control at 121.5 g/ha: Puccinia triticina, topical. The method in brief: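 Brown rust on first-leaf Yuma wheat: spore inoculation before or after spray application (acetone/Triton X-100 solution, or EC with Trycol in track spray), overnight 100% RH at 22 °C, disease developed at 24 °C. Severity scored 0–100% and converted to percent control against untreated.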

Assay [4] relates to Mycosphaerella graminicola; Anamorph: Septoria tritici. In words: Leaf Blotch of Wheat (SEPTTR) disease control. The conditions noted are these: for pest or weed control at 100 ppm / pest or weed control at 121.5 g/ha: Zymoseptoria tritici. The method in brief:
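Wheat seedlings (Yuma, first leaf emerged) sprayed to run-off with compound in acetone/water with 110 ppm Triton X-100, or track-sprayed as EC with 0.1% Trycol 5941. Septoria tritici spores inoculated before or after treatment. Dew chambers, then 20 °C greenhouse. Percent disease control derived from severity (0–100%) relative to untreated plants.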

[5] abbreviates: 1 Day Protectant, rate 121.5 g/H.
Setting [6] is: 24 h, 1 Day Protectant, read-out: Disease Control PHAKPA 1DP.
The mark [7] stands for this setting: 72 h, 3 Day Curative, read-out: Disease Control PHAKPA 3DC.
Where [8] appears, read: 24 h, 1 Day Protectant, rate 100 ppm, read-out: PUCCRT 1 DP disease control.
[9] abbreviates: 24 h, 1 Day Protectant, rate 121.5 g/H, read-out: PUCCRT 1 DP disease control.
Where [10] appears, read: 72 h, 3 Day Curative, rate 100 ppm, read-out: PUCCRT 3 DC disease control.
Setting [11] is: 72 h, 3 Day Curative, rate 121.5 g/H, read-out: PUCCRT 3 DC disease control.
Where [12] appears, read: 24 h, 1 Day Protectant, rate 100 ppm, read-out: SEPTTR 1 DP disease control.
Setting [13] is: 24 h, 1 Day Protectant, rate 121.5 g/H, read-out: SEPTTR 1 DP disease control.
The mark [14] stands for this setting: 72 h, 3 Day Curative, rate 100 ppm, read-out: SEPTTR 3 DC disease control.
Where [15] appears, read: 72 h, 3 Day Curative, rate 121.5 g/H, read-out: SEPTTR 3 DC disease control.

`COc1ccnc(C(=O)N[C@H]2CCC[C@H](Cc3ccc(F)cc3)[C@@H](OCC3CC3)[C@H](C)OC2=O)c1OCOC(C)=O` [Compound F98]: the “Disease Control ERYSGH 1 DP” value in assay [1] (100 ppm) was “A (80-100)”. The “Disease Control PHAKPA 1DP” value in assay [2] (25 ppm, 1 Day Protectant) was “A (80-100)”. Further, in assay [2] (25 ppm, 3 Day Curative), the “Disease Control PHAKPA 3DC” value was “A (80-100)”. For the same molecule, the “PUCCRT 1 DP disease control” value in assay [3] (1 Day Protectant, rate 100 ppm) is given as “A (80-100)”; in assay [3] (setting [5]), “A (80-100)”. Further, the “PUCCRT 3 DC disease control” value in assay [3] (3 Day Curative, rate 100 ppm) is “A (80-100)”; in assay [3] (3 Day Curative, rate 121.5 g/H) it was “A (80-100)”. Besides, the “SEPTTR 1 DP disease control” value in assay [4] (1 Day Protectant, rate 100 ppm) was “A (80-100)”; in assay [4] (setting [5]) it was “A (80-100)”. The “SEPTTR 3 DC disease control” value is listed as “A (80-100)” in assay [4] (3 Day Curative, rate 100 ppm) and “A (80-100)” in assay [4] (3 Day Curative, rate 121.5 g/H).

For `CCCO[C@@H]1[C@@H](Cc2ccc(F)cc2)CCC[C@H](NC(=O)c2nccc(OC)c2OCOC(C)=O)C(=O)O[C@H]1C` [Compound F101], the pest or weed control at 100 ppm in assay [1], in assay [3] (setting [8]), in assay [3] (setting [10]), in assay [4] (setting [12]) and in assay [4] (setting [14]) was 80 to 100% each time. In addition, the pest or weed control at 25 ppm in assay [2] (setting [6]) was in the range of 80 to 100%; in assay [2] (setting [7]) it was 0 to 80%. Moreover, the pest or weed control at 121.5 g/ha in assay [3] (setting [9]), in assay [3] (setting [11]), in assay [4] (setting [13]) and in assay [4] (setting [15]) was 80 to 100% in each case.

For `COc1ccnc(C(=O)N[C@H]2CCC[C@H](Cc3ccccc3)[C@@H](OCC(C)C)[C@H](C)OC2=O)c1OCOC(C)=O` [Compound F106], the pest or weed control at 100 ppm in assay [1], in assay [3] (setting [8]), in assay [3] (setting [10]), in assay [4] (setting [12]) and in assay [4] (setting [14]) was 80 to 100% each time. Besides, the figures for the pest or weed control at 25 ppm in assay [2] (setting [6]) and in assay [2] (setting [7]) were 80 to 100% and 0 to 80%, respectively. The pest or weed control at 121.5 g/ha in assay [3] (setting [9]), in assay [3] (setting [11]), in assay [4] (setting [13]) and in assay [4] (setting [15]) was 80 to 100% each time.

As for `COc1ccnc(C(=O)N[C@H]2CCC[C@H](Cc3ccccc3)[C@@H](OCC3CC3)[C@H](C)OC2=O)c1OCOC(C)=O` [Compound F107], the pest or weed control at 100 ppm in assay [1], in assay [3] (setting [8]), in assay [3] (setting [10]), in assay [4] (setting [12]) and in assay [4] (setting [14]) was 80 to 100% each time. Further, the pest or weed control at 25 ppm in assay [2] (setting [6]) and in assay [2] (setting [7]) was 80 to 100% each time. Moreover, the pest or weed control at 121.5 g/ha in assay [3] (setting [9]), in assay [3] (setting [11]), in assay [4] (setting [13]) and in assay [4] (setting [15]) was 80 to 100% throughout.

For `CCCO[C@@H]1[C@@H](Cc2ccccc2)CCC[C@H](NC(=O)c2nccc(OC)c2OCOC(C)=O)C(=O)O[C@H]1C` [Compound F109], the pest or weed control at 100 ppm in assay [1], in assay [3] (setting [8]), in assay [3] (setting [10]), in assay [4] (setting [12]) and in assay [4] (setting [14]) was 80 to 100% in each case. The pest or weed control at 25 ppm in assay [2] (setting [6]) lay within 80 to 100%; in assay [2] (setting [7]) it was 0 to 80%. Besides, the pest or weed control at 121.5 g/ha in assay [3] (setting [9]), in assay [3] (setting [11]), in assay [4] (setting [13]) and in assay [4] (setting [15]) was 80 to 100% throughout.

Turning to `COc1ccnc(C(=O)N[C@H]2CCC[C@H](CC3CCCCC3)[C@@H](OCC(C)C)[C@H](C)OC2=O)c1OCOC(C)=O` [Compound F113], the pest or weed control at 100 ppm in assay [1], in assay [3] (setting [8]), in assay [3] (setting [10]), in assay [4] (setting [12]) and in assay [4] (setting [14]) was 80 to 100% throughout. Further, the pest or weed control at 25 ppm in assay [2] (setting [6]) is 80 to 100%; in assay [2] (setting [7]) it was 0 to 80%. The pest or weed control at 121.5 g/ha in assay [3] (setting [9]), in assay [3] (setting [11]), in assay [4] (setting [13]) and in assay [4] (setting [15]) was 80 to 100% throughout.

In the case of `COc1ccnc(C(=O)N[C@H]2CCC[C@H](CC3CCCC3)[C@@H](OCC3CC3)[C@H](C)OC2=O)c1OCOC(C)=O` [Compound F117], the pest or weed control at 100 ppm in assay [1], in assay [3] (setting [8]), in assay [3] (setting [10]), in assay [4] (setting [12]) and in assay [4] (setting [14]) was 80 to 100% each time. Moreover, the pest or weed control at 25 ppm in assay [2] (setting [6]) and in assay [2] (setting [7]) was 80 to 100% each time. The pest or weed control at 121.5 g/ha in assay [3] (setting [9]), in assay [3] (setting [11]), in assay [4] (setting [13]) and in assay [4] (setting [15]) was 80 to 100% throughout.

As for `COc1ccnc(C(=O)N[C@H]2CCC[C@H](CCF)[C@@H](OCC(C)C)[C@H](C)OC2=O)c1OCOC(C)=O` [Compound F128, ((2-(((3S,7R,8R,9S)-7-(2-fluoroethyl)-8-isobutoxy-9-methyl-2-oxooxonan-3-yl)carbamoyl)-4-methoxypyridin-3-yl)oxy)methyl acetate], the pest or weed control at 100 ppm in assay [1] lay within 0 to 80%; in assay [3] (setting [8]), 80 to 100%; in assay [3] (setting [10]), 80 to 100%; in assay [4] (setting [12]), 80 to 100%; in assay [4] (setting [14]), 80 to 100%. The pest or weed control at 25 ppm in assay [2] (setting [6]) and in assay [2] (setting [7]) was 80 to 100% in each case. In addition, the pest or weed control at 121.5 g/ha in assay [3] (setting [9]), in assay [3] (setting [11]), in assay [4] (setting [13]) and in assay [4] (setting [15]) was 80 to 100% in each case.

As to `COCC[C@H]1CCC[C@H](NC(=O)c2nccc(OC)c2OCOC(C)=O)C(=O)O[C@@H](C)[C@@H]1Oc1ccccc1` [Compound F130], the pest or weed control at 100 ppm in assay [1] fell in the range of 0 to 80%; in assay [3] (setting [8]) it was 80 to 100%; in assay [3] (setting [10]), 80 to 100%; in assay [4] (setting [12]) it was 80 to 100%; in assay [4] (setting [14]) it was 0 to 80%. The pest or weed control at 25 ppm in assay [2] (setting [6]) and in assay [2] (setting [7]) was 80 to 100% in each case. Moreover, the pest or weed control at 121.5 g/ha in assay [3] (setting [9]), in assay [3] (setting [11]), in assay [4] (setting [13]) and in assay [4] (setting [15]) was 80 to 100% throughout.

`COc1ccnc(C(=O)N[C@H]2CCC[C@H](CC(F)F)[C@@H](Oc3ccccc3)[C@H](C)OC2=O)c1OCOC(C)=O` [Compound F138]: the pest or weed control at 100 ppm in assay [1] is 0 to 80%; in assay [3] (setting [8]), 80 to 100%; in assay [3] (setting [10]) it was 80 to 100%; in assay [4] (setting [12]) it was 80 to 100%; in assay [4] (setting [14]) it was 80 to 100%. For the same molecule, the pest or weed control at 25 ppm in assay [2] (setting [6]) and in assay [2] (setting [7]) was 80 to 100% in each case. Besides, the pest or weed control at 121.5 g/ha in assay [3] (setting [9]), in assay [3] (setting [11]), in assay [4] (setting [13]) and in assay [4] (setting [15]) was 80 to 100% in each case.
